Source: patent EP0250134B1, “Method for combating swine dysentery” (IMCERA Group Inc., priority 1986, dated 1987)

System: Treponema hyodysenteriae induced swine dysentery
Assay: Treponema hyodysenteriae induced swine dysentery, lysocellin in feed, 51-day trial, challenge on study day 22
Assay type: in vivo
Conditions: for Number of Pigs per Pen Expressing Clinical Signs of Dysentery During the Postchallenge Period: Anorexia / Number of Pigs per Pen Expressing Clinical Signs of Dysentery During the Postchallenge Period: Any clinical signs / Number of Pigs per Pen Expressing Clinical Signs of Dysentery During the Postchallenge Period: Bloody feces / Number of Pigs per Pen Expressing Clinical Signs of Dysentery During the Postchallenge Period: Dehydrated / Number of Pigs per Pen Expressing Clinical Signs of Dysentery During the Postchallenge Period: Depressed / Number of Pigs per Pen Expressing Clinical Signs of Dysentery During the Postchallenge Period: Gauntness / Number of Pigs per Pen Expressing Clinical Signs of Dysentery During the Postchallenge Period: Lethargic / Number of Pigs per Pen Expressing Clinical Signs of Dysentery During the Postchallenge Period: Reddened skin / Number of Pigs per Pen Expressing Clinical Signs of Dysentery During the Postchallenge Period: Rough hair coat / Number of Pigs per Pen Expressing Clinical Signs of Dysentery During the Postchallenge Period: Weak: 5 pigs/pen
Source text: One hundred twenty (120) cross-bred barrows and gilts were used in a randomized complete blocks design to evaluate the effect of lysocellin on Treponema hyodysenteriae induced swine dysentery. The swine were divided into 4 groups: (1) non-infected, non-medicated controls, (2) infected non-medicated controls, (3) infected, medicated at 98.43 grams lysocellin/t (100 g/T), and (4) infected, medicated at 196.85 grams lysocellin/t (200 g/T). All were observed through a 51-day trial period. Swine in groups (2)-(4) were challenged with Treponema hyodysenteriae on study day 22 and the post-challenge period data were analyzed for significant differences. A description of the experimental design is summarized as follows:
Comparisons were made on treatment 1 vs. treatments 3 and 4, treatment 2 vs. treatment 3 and 4, and treatment 3 vs. treatment 4. The following observations were made based upon data analyzed: postchallenge performance of swine with respect to daily gain and daily feed gain, number of pigs per pen expressing clinical signs of dysentery during the postchallenge period, number of pig days per pen with clinical signs of dysentery during the postchallenge period, and number of pig days per pen with specified fecal score.
Referring to table 3 and table 4, clinical signs of dysentery observed during the postchallenge period are presented as treatment means of: number of pigs per pen expressing the sign and number of pig days the sign was observed within a pen. The value "pig days" was based on 28 days/pig surviving to the end of the trial or number of days a pig survived during the postchallenge period (for example, 5 pigs/pen on trial for 28 days equals 140 pig days). Removal of pigs from a pen during the trial was taken into account in these calculations.

[1] = 98.43 g/t (100 g/T) lysocellin, mean (lower, higher 95% confidence limits)
[2] = 98.43 g/t (100 g/T) lysocellin, mean (lower, higher 95% confidence limits), 5 pigs/pen for 28 days = 140 pig days
[3] = 196.85 g/t (200 g/T) lysocellin, mean (lower, higher 95% confidence limits)
[4] = 196.85 g/t (200 g/T) lysocellin, mean (lower, higher 95% confidence limits), 5 pigs/pen for 28 days = 140 pig days

Substance: lysocellin
- Number of Pigs per Pen Expressing Clinical Signs of Dysentery During the Postchallenge Period: Anorexia [1]: 0.00 (-0.27,0.37)
- Number of Pigs per Pen Expressing Clinical Signs of Dysentery During the Postchallenge Period: Any clinical signs [1]: 4.49 (3.42,5.69)
- Number of Pigs per Pen Expressing Clinical Signs of Dysentery During the Postchallenge Period: Bloody feces [1]: 2.73 (1.93,3.66)
- Number of Pigs per Pen Expressing Clinical Signs of Dysentery During the Postchallenge Period: Dehydrated [1]: 1.08 (0.44,1.89)
- Number of Pigs per Pen Expressing Clinical Signs of Dysentery During the Postchallenge Period: Depressed [1]: 1.78 (1.18,2.47)
- Number of Pigs per Pen Expressing Clinical Signs of Dysentery During the Postchallenge Period: Gauntness [1]: 3.98 (3.13,4.92)
- Number of Pigs per Pen Expressing Clinical Signs of Dysentery During the Postchallenge Period: Lethargic [1]: 2.12 (1.50,2.82)
- Number of Pigs per Pen Expressing Clinical Signs of Dysentery During the Postchallenge Period: Reddened skin [1]: 0.87 (0.24,1.69)
- Number of Pigs per Pen Expressing Clinical Signs of Dysentery During the Postchallenge Period: Rough hair coat [1]: 1.93 (1.20,2.79)
- Number of Pigs per Pen Expressing Clinical Signs of Dysentery During the Postchallenge Period: Weak [1]: 1.93 (1.31,2.64)
- Number of Pig Days per Pen with Clinical Signs of Dysentery During the Postchallenge Period: Anorexia [2]: 0.00 (-0.30,0.43)
- Number of Pig Days per Pen with Clinical Signs of Dysentery During the Postchallenge Period: Bloody feces [2]: 9.98 (5.72,15.34)
- Number of Pig Days per Pen with Clinical Signs of Dysentery During the Postchallenge Period: Dehydrated [2]: 2.69 (1.40,4.33)
- Number of Pig Days per Pen with Clinical Signs of Dysentery During the Postchallenge Period: Depressed [2]: 3.14 (1.78,4.81)
- Number of Pig Days per Pen with Clinical Signs of Dysentery During the Postchallenge Period: Gauntness [2]: 30.35 (20.97,41.42)
- Number of Pig Days per Pen with Clinical Signs of Dysentery During the Postchallenge Period: Lethargic [2]: 9.08 (4.93,14.42)
- Number of Pig Days per Pen with Clinical Signs of Dysentery During the Postchallenge Period: Reddened skin [2]: 2.21 (0.51,4.72)
- Number of Pig Days per Pen with Clinical Signs of Dysentery During the Postchallenge Period: Rough hair coat [2]: 18.07 (7.46,33.11)
- Number of Pig Days per Pen with Clinical Signs of Dysentery During the Postchallenge Period: Weak [2]: 0.87 (0.08,1.99)
- fecal condition (number of pen pig days with a specified fecal condition) (196.85 g lysocellin/t (200 g/T) rather than 98.43 g/T, postchallenge period (Table 5, not given)): increased (PM.05) the number of days with normal feces and decreased (P<.05) the incidence of soft, watery or bloody feces
- Number of Pigs per Pen Expressing Clinical Signs of Dysentery During the Postchallenge Period: Anorexia [3]: 0.00 (-0.27,0.37)
- Number of Pigs per Pen Expressing Clinical Signs of Dysentery During the Postchallenge Period: Any clinical signs [3]: 2.72 (1.87,3.70)
- Number of Pigs per Pen Expressing Clinical Signs of Dysentery During the Postchallenge Period: Bloody feces [3]: 1.20 (0.63,1.89)
- Number of Pigs per Pen Expressing Clinical Signs of Dysentery During the Postchallenge Period: Dehydrated [3]: 0.23 (-0.18,0.80)
- Number of Pigs per Pen Expressing Clinical Signs of Dysentery During the Postchallenge Period: Depressed [3]: 0.27 (-0.06,0.70)
- Number of Pigs per Pen Expressing Clinical Signs of Dysentery During the Postchallenge Period: Gauntness [3]: 1.96 (1.35,2.67)
- Number of Pigs per Pen Expressing Clinical Signs of Dysentery During the Postchallenge Period: Lethargic [3]: 0.43 (0.08,0.87)
- Number of Pigs per Pen Expressing Clinical Signs of Dysentery During the Postchallenge Period: Reddened skin [3]: 0.55 (0.01,1.28)
- Number of Pigs per Pen Expressing Clinical Signs of Dysentery During the Postchallenge Period: Rough hair coat [3]: 1.31 (0.68,2.06)
- Number of Pigs per Pen Expressing Clinical Signs of Dysentery During the Postchallenge Period: Weak [3]: 1.31 (0.78,1.93)
- Number of Pig Days per Pen with Clinical Signs of Dysentery During the Postchallenge Period: Anorexia [4]: 0.00 (-0.30,0.43)
- Number of Pig Days per Pen with Clinical Signs of Dysentery During the Postchallenge Period: Bloody feces [4]: 3.02 (0.78,6.35)
- Number of Pig Days per Pen with Clinical Signs of Dysentery During the Postchallenge Period: Dehydrated [4]: 0.23 (-0.30,1.09)
- Number of Pig Days per Pen with Clinical Signs of Dysentery During the Postchallenge Period: Depressed [4]: 0.38 (-0.21,1.29)
